Tests used:
human OA chondrocytes = assay: Reactive oxygen species (ROS) production in human OA chondrocytes (DCFH-DA probe); assay type: cell-based; conditions: 1 μM, 0.5 mM H2O2 for 2 hours
Procedure: In a second step, the study was continued to explore the antioxidant effect of RvD1 and compounds I-1 and I-2 in a cell medium. Thus, human OA chondrocytes with osteoarthritis were seeded in black plates at a rate of 5×10^4 cells per well in 10% FBS DMEM medium (phenol red free) and incubated for 24 h at 37° C., and then treated with 0.5 mM H2O2 for 2 hours in the presence or absence of RvD1 and the compounds I-1 and I-2 at a concentration of 1 μM. The generation of ROS was measured by the addition of 10 μM of the DCFH-DA probe and fluorescence was measured using a microplate reader with Fluorescence Polarization (Polar Star Optima, BMG Labtech) set up at ex. 485 nm and em. 530 nm.

COX-2 [1] = assay: COX-2 protein expression by Western blotting in Raw264.7 macrophages; assay type: cell-based, mouse; conditions: Raw264.7 macrophages, 0, 0.25, 0.5, 1 μM for 1 hour, then 1 ng/ml IL-1β for 24 hours (n=2)
Procedure: 20 μg of total proteins of Raw264.7 macrophages lysates, treated under the indicated conditions, were loaded for discontinuous 4-12% sodium dodecyl sulfate-polyacrylamide gel electrophoresis. They were then transferred electrophoretically onto nitrocellulose membranes (Bio-Rad Laboratories, Mississauga, ON, Canada) for protein immunodetection and semi-quantitative measurement. The primary antibodies deployed were rabbit anti-COX-2 (Cayman Chemical Company) and mouse anti-β-actine (Sigma). […] Immunoreactive proteins were detected with SuperSignal blotting substrate (Pierce, Rockford, IL) and exposed to Kodak X-Omat™ film (Eastman Kodak Company, Rochester, NY).
Here, the hypothesis whether RvD1 analogues have the ability to modulate COX-2 protein expression was tested. Raw264.7 macrophages were pretreated with increasing doses of compound I-2 (0, 0.25, 0.5, 1-μM) for 1 hour and treated then after with 1 ng/ml IL-1β for 24 hours.

TNFα = assay: Inhibition of IL-1β-induced TNFα production in Raw264.7; assay type: cell-based, mouse; conditions: Raw264.7, 1 μM, pretreated 1 h then 1 ng/ml IL-1β for 24 h, compared to IL-1β alone
Procedure: (§1) Murine macrophage RAW 264.7 (ATCC, Manassas, VA, USA) were cultured with AMEM/10% FBS and antibiotics at 37° C. in a humidified atmosphere with 5% CO2. Primary human monocytes were isolated from whole blood obtained from healthy volunteers. Briefly, blood was centrifuged on a Ficoll-Paque density gradient, according to the manufacturer's recommendations. Isolated monocytes were then cultured in RPMI 1640 medium supplemented with 10% FBS, and antibiotics. All donors provided written, informed consent for the use of their blood for research purposes. Experimental protocols were approved by the Research Ethics Board of the “Hôpital du Sacré-Coeur de Montreal”.
It is well-documented that the RvD1 is considered as a potent anti-inflammatory mediator. Thus, the purpose of this part of the present study was to investigate whether compounds I-1 and I-2's capacity to inhibit pro-inflammatory cytokines, such as TNFα. To do so, Raw264.7 were pretreated with compounds I-1 and I-2 at different concentrations (0, 0.1, 0.5, and 1-μM) for 1h, followed by exposure to 1 ng/ml IL-1β for 24 h. […] As such, it may be concluded that compounds I-1 and I-2 inhibit TNFα production.

[2] = Reactive oxygen species (ROS) production in acellular environment (DCFH-DA probe); conditions: 1 μM, ROS generated with CuCl2 (1 mM) and H2O2 (1 mM) for 10 min
Procedure: ROS were generated by incubating in black 96-well plate with CuCl2 (1 mM) with H2O2 (1 mM) for 10 min. Subsequently, RvD1, I-1 and I-2 at 1 μM were added before the addition of the DCFH-DA probe.

[3] = tested on: osteoclasts from monocytes of peripheral blood of healthy donors; assay: Osteoclast recruitment: differentiation of peripheral blood monocytes into osteoclasts (TRAP-positive cells); assay type: cell-based, human; conditions: 500 ng, 14 days, 50 ng/ml RANKL + 10 ng/ml M-CSF, 2×10^5 monocytes/chamber (n=3)
Procedure: The effect of RvD1 analogs on the differentiation of macrophages into osteoclasts was investigated. Monocytes from peripheral blood of healthy donors were cultured in culture chambers at 2×10^5 monocytes/chamber in the presence of 50 ng/ml RANKL+10 ng/ml M-CSF for 14 days, in the presence or absence of 500 ng of compounds I-1 and I-2 (n=3).

[4] = H2O2-induced hyaluronic acid fragmentation (agarose gel, Stains-All); conditions: HA 1 mg/ml, pretreated 1 hour at 1 or 10 μM, then 1 mM H2O2 for 4 hours; preliminary data
Procedure: Commercial hyaluronic acid was solubilised in sterilized PBS (1 mg/ml) during overnight under gentile shaking. The solution was pretreated with N-acetyl-Cysteine (NAC), RvD1, compounds I-1 and I-2 at 1 or 10 μM for 1 hour and then treated with 1 mM H2O2 during 4 hours. Samples were mixed in loading buffer containing 1M sucrose and loaded in 1% agarose/1× Tris-borate-EDTA (TBE) and pre-run the gel for 6 hours at 40V in 1× TBE buffer. The gel was then equilibrated with 30% ethanol in water and stained with Stains-All solution containing 0.1 mg Stains-All and 30% ethanol for overnight in the dark. Next, the gel was equilibrated in water for 1 hour and then exposed to light for destaining. Finally, hyaluronic acid was visualized using Alpha Imager under light transillumination. Results are shown in FIG. 4, where arrows show hyaluronic acid fragments (n=2), Al=I-1; A2=I-2.
This part of experiments was designed to investigate the ability of RvD1 analogues to protect hyaluronic acid against H2O2-induced degradation (antioxidant effect). To do so, the polymer at 1 mg/ml was pretreated by RvD1 and their analogues for 1 hour and then after treated with 1 mM H2O2 for 4 hours.

[5] = tested on: human monocyte-derived osteoclasts; assay: Hydroxyapatite matrix resorption by human monocyte-derived osteoclasts (von Kossa staining); assay type: cell-based; conditions: 500 nM, M-CSF/RANKL-differentiated cells, p<0.01 (n=3)
Description: The effect of RvD1 analogs on the resorption activity of human monocyte-derived osteoclasts was investigated. Results were obtained as described in Benabdoun et al. 2019 and are shown in FIG. 10, where data were expressed as % resorption area/osteoclast with three nuclei or more (n=3).

[6] = Ultraviolet-induced hyaluronic acid (HA) degradation; conditions: 1 μM, HA 1 mg/ml in PBS, UV for 4 hours (n=3)
Procedure: In order to study the protective effect of RvD1 and its analogs on the stability of hyaluronic acid (HA), a solution of commercial HA was prepared in PBS at a concentration of 1 mg/ml, then exposed to Ultraviolet rays (UV) for 4 hours in the presence or absence of RvD1 and compounds I-1 and I-2 at a dose of 1 μM. 20 μg of HA were loaded into an agarose gel (1% prepared in TBE buffer). After 4 hours of migration at 40 volts, the HA was visualized after staining with Stains-All dissolved in 30% ethanol.

[7] = tested on: human isolated monocytes/macrophages-RANKL/M-CSF-derived osteoclasts; assay: TRAP staining, osteoclast differentiation of RANKL/M-CSF-treated human monocytes; assay type: cell-based; conditions: 500 nM, 14 days, 50 ng/ml RANKL and 10 ng/ml M-CSF
Procedure: as §1
Isolated human monocytes were isolated as described previously, seeded in chambered cell culture slides at 8×10^4 cells/well, and treated with 50 ng/ml RANKL and 10 ng/ml M-CSF in the presence or absence of 500 nM of compounds I-1 and I-2 for 14 days. Culture medium was changed every 3 days. TRAP staining performed as recommended by the manufacturer. […] Results are shown in FIG. 3, where arrows show osteoclasts with three nuclei or more (b). R=RANKL; M=M-CSF.
Here, the impact of RvD1 analogues treatment on human isolated monocytes/macrophages-RANKL/M-CSF-derived osteoclasts was eveluated, by measuring their phenotypic markers, namely TRAP. […]

Raw264.7 macrophages = assay: Cell viability (MTS) assay, cytotoxicity in Raw 264.7 macrophages; assay type: cell-based, mouse; conditions: Raw264.7 macrophages, 0, 0.1, 0.25, 0.5 and 1 μM, 24 h incubation
Procedure: Murine macrophage RAW 264.7 (ATCC, Manassas, VA, USA) were cultured with AMEM/10% FBS and antibiotics at 37° C. in a humidified atmosphere with 5% CO2. Primary human monocytes were isolated from whole blood obtained from healthy volunteers. Briefly, blood was centrifuged on a Ficoll-Paque density gradient, according to the manufacturer's recommendations. Isolated monocytes were then cultured in RPMI 1640 medium supplemented with 10% FBS, and antibiotics. All donors provided written, informed consent for the use of their blood for research purposes. Experimental protocols were approved by the Research Ethics Board of the “[…] du Sacré-Coeur de Montreal”. Raw264.7 cells were treated for 24 hours with increasing concentrations of compounds I-1 and I-2 (0, 0,1, 0,25, 0,5, and 1 μM). Cell viability was assessed with MTS assay kit (Promega Corporation, Madison, WI, USA), as described by the manufacturer. Absorbance was measured with the micro-ELISA Vmax photometer (Bio-Tek Instruments, Winooski, VT, USA). Cell viability was evaluated by 3-(4,5-dimethyl-thiazoyl)-2,5-diphenyl-SH-tetrazolium bromide assay. ANOVA test was performed to compare the results. Results are expressed as mean±SEM for n=3. This part of the experiment was designed to test the cytotoxic effect of compounds 1-1 and 1-2 on mouse Raw264.7 macrophages. […]

MMP-13 = assay: Inhibition of MMP-13 production in human OA chondrocytes; assay type: cell-based; conditions: Chondrocyte, IL-1β 1 ng/ml one hour then compound 24 hours
Procedure: The effect of RvD1 analogs on the expression of MMP-13, a key enzyme involved in the degradation of OA cartilage, was investigated. Chondrocytes from human osteoarthritic cartilage were treated with IL-1β (1 ng/ml) for one hour followed by another treatment with RvD1 and its analogues for 24 hours.

COX-2 [8] = assay: COX-2 expression in human OA chondrocytes by Western blot; assay type: cell-based; conditions: 10 μM, 1 hour then IL-1β 1 ng/ml for 24 hours
Procedure: Cells were seeded in 24-well flat plates at a confluence of 5×10^5 cells per well in 10% FBS DMEM medium and incubated for 24 h at 37° C. Then, the cells were treated with I-1 at different doses (0-10 μM) for 1 hour followed by a second treatment with IL-1β for 24 hours (1 ng/ml). COX-2 expression was assessed by Western blot by specific anti-COX-2 antibody.

Compound	generation of ROS by chondrocytes (human OA chondrocytes)	IL-1β-induced COX-2 protein expression (COX-2 [1])	reduction of TNFα level (TNFα) [%]	level of ROS in acellular medium [2]	formation of osteoclasts (3 or more nuclei) [3]	H2O2-induced hyaluronic acid fragmentation [4]	erosion of the hydroxyapatite matrix (% resorption area/osteoclast) [5]	HA degradation by UV exposure [6]	osteoclasts differentiation (TRAP) [7]	cell viability (Raw264.7 macrophages)	inhibition at 20 µM (MMP-13) [%]	COX-2 expression (COX-2 [8])	inhibition at 10 µM (MMP-13; 10 μM) [%]
CCCCC[C@H](O)c1c(/C=C/[C@@H](O)[C@@H](O)C/C=C\CCC(=O)O)nc(C)n1C [I-2, (4Z,7S,8R,9E)-7,8-dihydroxy-10-(5-((S)-1-hydroxyhexyl)-1,2-dimethyl-1H-imidazol-4-yl)deca-4,9-dienoic acid]	significantly reduced the generation of ROS	reduced IL-1β-induced COX-2 protein expression	40	level of ROS decreases	inhibited the formation of large osteoclasts	prevent H2O2-induced fragmentation	significantly reduced erosion of the hydroxyapatite matrix to almost control level	prevents HA degradation by UV exposure	strongly prevent osteoclasts differentiation	did not alter the cell viability	~20	–	–
CCCCC[C@H](O)c1c(/C=C/[C@@H](O)[C@@H](O)C/C=C\CCC(=O)OC)nc(C)n1C [I-1, methyl (4Z,7S,8R,9E)-7,8-dihydroxy-10-(5-((S)-1-hydroxyhexyl)-1,2-dimethyl-1H-imidazol-4-yl)deca-4,9-dienoate]	significantly reduced the generation of ROS	–	40	level of ROS decreases	inhibited the formation of large osteoclasts	prevent H2O2-induced fragmentation	significantly reduced erosion of the hydroxyapatite matrix to almost control level	prevents HA degradation by UV exposure	strongly prevent osteoclasts differentiation	did not alter the cell viability	~20	reduces COX-2 expression	–
CC/C=C\C[C@H](O)/C=C/C=C\C=C\C=C\[C@@H](O)[C@@H](O)C/C=C\CCC(=O)O [RvD1, 7S,8R,17S-trihydroxy-4Z,9E, 11E,13Z,15E,19Z-docosahexaenoic acid, reference compound]	significantly reduced the generation of ROS	–	–	level of ROS decreases	–	prevent H2O2-induced fragmentation	–	prevents HA degradation by UV exposure	–	–	–	–	~20

Reference: patent publication US12398122B2, “Resolvin analogs compounds, methods and uses thereof” (VALORISATION RECHERCHE HSCM, LIMITED PARTNERSHIP, priority 2022, dated 2025)
